Source: patent publication US11976083B2, “Inhibitors of peptidylarginine deiminases” (Gilead Sciences, Inc., priority 2020, dated 2024)

target: T1, human PAD4 (Homo sapiens, UniProt Q9UM07); assay: In vitro PAD4 BAEE biochemical assay; conditions: BAEE substrate 3 mM, 5 nM PAD4, 2 mM calcium chloride; geometric mean of multiple experiments
T1 construct: human PAD4 (NM_012387), A2-P663, was PCR amplified; His-SUMO (N, cleaved yes); made in house; host or cells: E. coli BL21(DE3)
Procedure, shortened: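 Recombinant PAD4 (5 nM final) with 2 mM CaCl2 was preincubated with compound for 30 min at 25 °C in MOPS pH 7.6 buffer with DTT, then reacted with 3 mM BAEE for 2 h at 25 °C. Released ammonia was detected fluorimetrically with o-phthalaldehyde/DTT; IC50 from four-parameter fit, geometric mean of experiments.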

T1 sequence (Q9UM07 2-663): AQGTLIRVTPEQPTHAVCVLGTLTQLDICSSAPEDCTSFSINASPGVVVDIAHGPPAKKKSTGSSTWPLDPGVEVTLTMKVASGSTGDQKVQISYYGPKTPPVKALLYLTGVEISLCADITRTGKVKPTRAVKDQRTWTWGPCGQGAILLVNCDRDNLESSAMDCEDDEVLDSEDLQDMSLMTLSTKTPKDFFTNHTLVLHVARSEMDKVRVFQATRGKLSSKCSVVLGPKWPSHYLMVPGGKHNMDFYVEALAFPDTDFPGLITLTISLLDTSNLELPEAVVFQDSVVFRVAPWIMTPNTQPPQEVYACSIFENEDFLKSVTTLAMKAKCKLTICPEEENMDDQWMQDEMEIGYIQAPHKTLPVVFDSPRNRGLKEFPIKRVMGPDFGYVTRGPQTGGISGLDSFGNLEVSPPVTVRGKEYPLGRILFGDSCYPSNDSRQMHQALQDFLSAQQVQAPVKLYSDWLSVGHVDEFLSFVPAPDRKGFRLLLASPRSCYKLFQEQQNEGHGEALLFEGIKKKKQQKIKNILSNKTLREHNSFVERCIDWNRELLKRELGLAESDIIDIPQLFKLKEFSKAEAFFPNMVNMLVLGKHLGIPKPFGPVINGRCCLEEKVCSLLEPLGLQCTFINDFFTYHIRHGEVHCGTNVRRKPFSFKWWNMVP

Row | SMILES | IC50
1 | COc1cc(C(=O)N2[C@H]3CC[C@@H]2[C@H](N)C3)cc2nc(-c3cc4ccc5nc4n3CCCCCC[C@@H](C)C(=O)N[C@@H]5C)n(C)c12 [Example 136, (8~{R},11~{R})-17-[5-[(1~{R},2~{R},4~{S})-2-amino-7-azabicyclo[2.2.1]heptane-7-carbonyl]-7-methoxy-1-methyl-benzimidazol-2-yl]-8,11-dimethyl-1,10,19-triazatricyclo[10.5.2.0^{15,18}]nonadeca-12(19),13,15(18),16-tetraen-9-one] | 0.04 µM
2 | COc1cc(C(=O)N2[C@H]3CC[C@@H]2[C@H](N)C3)cc2nc(-c3cc4ccc5nc4n3CCCCCC[C@H](C)C(=O)N[C@@H]5C)n(C)c12 [Example 137, (8~{S},11~{R})-17-[5-[(1~{R},2~{R},4~{S})-2-amino-7-azabicyclo[2.2.1]heptane-7-carbonyl]-7-methoxy-1-methyl-benzimidazol-2-yl]-8,11-dimethyl-1,10,19-triazatricyclo[10.5.2.0^{15,18}]nonadeca-12(19),13,15(18),16-tetraen-9-one] | 0.035 µM
3 | COc1cc(C(=O)N2[C@H]3CC[C@@H]2[C@H](N)C3)cc2nc(-c3cc4ccc5nc4n3CCCCCC[C@@H]3CCN(C3=O)[C@@H]5C)n(C)c12 [Example 138, (2˜{R},6˜{R})-14-[5-[(1˜{R},2˜{R},4˜{S})-2-amino-7-azabicyclo[2.2.1]heptane-7-carbonyl]-7-methoxy-1-methyl-benzimidazol-2-yl]-2-methyl-3,13,19-triazatetracyclo[11.5.2.1^{3,6}.0^{16,20}]henicosa-1(19),14,16(20),17-tetraen-21-one] | 0.018 µM
4 | COc1cc(C(=O)N2[C@H]3CC[C@@H]2[C@H](N)C3)cc2nc(-c3cc4ccc5nc4n3CC3(CCCCCC(=O)N[C@@H]5C)CC3)n(C)c12 [Example 139, (11~{R})-17-[5-[(1~{R},2~{R},4~{S})-2-amino-7-azabicyclo[2.2.1]heptane-7-carbonyl]-7-methoxy-1-methyl-benzimidazol-2-yl]-11-methyl-spiro[1,10,19-triazatricyclo[10.5.2.0^{15,18}]nonadeca-12(19),13,15(18),16-tetraene-3,1′-cyclopropane]-9-one] | 0.04 µM
5 | COc1cc(C(=O)N2CCC[C@@H](N)C2)cc2nc(-c3cc4ccc5nc4n3CC(C)(C)CCCCCC(=O)N[C@@H]5C)n(C)c12 [Example 140, (11~{R})-17-[5-[(3~{R})-3-aminopiperidine-1-carbonyl]-7-methoxy-1-methyl-benzimidazol-2-yl]-3,3,11-trimethyl-1,10,19-triazatricyclo[10.5.2.0^{15,18}]nonadeca-12(19),13,15(18),16-tetraen-9-one] | 0.097 µM
6 | COc1cc(C(=O)N2[C@H]3CC[C@@H]2[C@H](N)C3)cc2nc(-c3cc4ccc5nc4n3CC(C)(C)CCCCCC(=O)N[C@@H]5C)n(C)c12 [Example 141, (11~{R})-17-[5-[(1~{R},2~{R},4~{S})-2-amino-7-azabicyclo[2.2.1]heptane-7-carbonyl]-7-methoxy-1-methyl-benzimidazol-2-yl]-3,3,11-trimethyl-1,10,19-triazatricyclo[10.5.2.0^{15,18}]nonadeca-12(19),13,15(18),16-tetraen-9-one] | 0.068 µM
7 | COc1cc(C(=O)N2[C@H]3CC[C@@H]2[C@H](N)C3)cc2nc(-c3cc4ccc5nc4n3C[C@H]3C[C@H]3CC[C@@H]3C[C@H]3C(=O)N[C@@H]5C)n(C)c12 [Example 142, (3~{S),5~{R},8~{R},10~{R},13~{R})-19-[5-[(1~{R},2~{R},4~{S})-2-amino-7-azabicyclo[2.2.1]heptane-7-carbonyl]-7-methoxy-1-methyl-benzimidazol-2-yl]-13-methyl-1,12,21-triazapentacyclo[12.5.2.0^{3,5}.0^{8,10}.0^ {17,20}]henicosa-14(21),15,17(20),18-tetraen-11-one] | 0.028 µM
8 | COc1cc(C(=O)N2[C@H]3CC[C@@H]2[C@H](N)C3)cc2nc(-c3cc4ccc5nc4n3C[C@H]3C[C@H]3CC[C@H]3C[C@@H]3C(=O)N[C@@H]5C)n(C)c12 [Example 143, (3~{S),5~{R},8~{S},10~{S},13~{R})-19-[5-[(1~{R},2~{R},4~{S})-2-amino-7-azabicyclo[2.2.1]heptane-7-carbonyl]-7-methoxy-1-methyl-benzimidazol-2-yl]-13-methyl-1,12,21-triazapentacyclo[12.5.2.0^{3,5}.0^{8,10}.0^ {17,20}]henicosa-14(21),15,17(20),18-tetraen-11-one] | 0.158 µM
9 | COc1cc(C(=O)N2[C@H]3CC[C@@H]2[C@H](N)C3)cc2nc(-c3cc4ccc5nc4n3C[C@H]3C[C@H]3CCCCC(=O)N[C@@H]5C)n(C)c12 [Example 144, (3~{S),5~{R},12~{R})-18-[5-[(1~{R},2~{R},4~{S})-2-amino-7-azabicyclo[2.2.1]heptane-7-carbonyl]-7-methoxy-1-methyl-benzimidazol-2-yl]-12-methyl-1,11,20-triazatetracyclo[11.5.2.0^{3,5}.0^{16,19}] icosa-13(20),14,16(19),17-tetraen-10-one] | 0.031 µM
10 | COc1cc(C(=O)N2[C@H]3CC[C@@H]2[C@H](N)C3)cc2nc(-c3cc4ccc5nc4n3C[C@H]3C[C@H]3CCCC(C)(C)C(=O)N[C@@H]5C)n(C)c12 [Example 145, (3~{S},5~{R},12~{R})-18-[5-[(1~{R},2~{R},4~{S})-2-amino-7-azabicyclo[2.2.1]heptane-7-carbonyl]-7-methoxy-1-methyl-benzimidazol-2-yl]-9,9,12-trimethyl-1,11,20-triazatetracyclo[11.5.2.0^{3,5}.0^{16,19}] icosa-13(20),14,16(19),17-tetraen-10-one] | 0.058 µM
11 | COc1cc(C(=O)N2CCC[C@@H](N)C2)cc2nc(-c3cc4ccc5nc4n3CCCCCCCN(C)C(=O)N[C@@H]5C)c(C)n12 [Example 146, (12~{R})-18-[7-[(3~{R})-3-aminopiperidine-1-carbonyl]-5-methoxy-3-methyl-imidazo[1,2-a]pyridin-2-yl]-9,12-dimethyl-1,9,11,20-tetrazatricyclo[11.5.2.0^{16,19}]icosa-13(20),14,16(19),17-tetraen-10-one] | 0.047 µM
12 | COc1cc(C(=O)N2CCC[C@@H](N)C2)cc2nc(-c3cc4ccc5nc4n3CCCCCCOc3ccccc3C(=O)N[C@@H]5C)c(C)n12 [Example 147, (2~{R})-19-[7-[(3~{R})-3-aminopiperidine-1-carbonyl]-5-methoxy-3-methyl-imidazo[1,2-a]pyridin-2-yl]-2-methyl-11-oxa-3,18,24-triazatetracyclo [16.5.2.0^{5,10}.0^{21,25}] pentacosa-1(24),5(10),6,8,19,21(25),22-heptaen-4-one] | 0.365 µM
13 | COc1cc(C(=O)N2CCC[C@@H](N)C2)cc2nc(-c3cc4ccc5cc4n3CCCCCCC(C)(C)C(=O)N[C@@H]5C)n(C)c12 [Example 148, (11~{R})-17-[5-[(3~{R})-3-aminopiperidine-1-carbonyl]-7-methoxy-1-methyl-benzimidazol-2-yl]-8,8,11-trimethyl-1,10-diazatricyclo [10.5.2.0^{15,18}]nonadeca-12(19),13,15(18),16-tetraen-9-one] | 0.045 µM
14 | COc1cc(C(=O)N2CCC[C@@H](N)C2)cc2nc(-c3cc4ccc5nc4n3C[C@H]3C[C@@H]3COCCC(=O)N[C@@H]5C)n(C)c12 [Example 149, (3~{S},5~{S},12~{R})-18-[5-[(3~{R})-3-aminopiperidine-1-carbonyl]-7-methoxy-1-methyl-benzimidazol-2-yl]-12-methyl-7-oxa-1,11,20-triazatetracyclo[11.5.2.0^{3,5}.0^{16,19}] icosa-13(20),14,16(19),17-tetraen-10-one] | 0.046 µM
15 | COc1cc(C(=O)N2CCC[C@@H](N)C2)cc2nc(-c3cc4ccc5nc4n3C[C@@H]3C[C@H]3COCCC(=O)N[C@@H]5C)n(C)c12 [Example 150, (3~{R},5~{R},12~{R})-18-[5-[(3~{R})-3-aminopiperidine-1-carbonyl]-7-methoxy-1-methyl-benzimidazol-2-yl]-12-methyl-7-oxa-1,11,20-triazatetracyclo[11.5.2.0^{3,5}.0^{16,19}] icosa-13(20),14,16(19),17-tetraen-10-one] | 0.107 µM
16 | COc1cc(C(=O)N2CCC[C@@H](N)C2)cc2nc(-c3cc4ccc5nc4n3CCCC[C@H]3C[C@@H]3C(=O)N[C@@H]5C)n(C)c12 [Example 151, (2~{R},5~{S},7~{S})-13-[5-[(3~{R})-3-aminopiperidine-1-carbonyl]-7-methoxy-1-methyl-benzimidazol-2-yl]-2-methyl-3,12,18-triazatetracyclo[10.5.2.0^{5,7}.0^{15,19}] nonadeca-1(18),13,15(19),16-tetraen-4-one] | 0.123 µM
17 | COc1cc(C(=O)N2[C@H]3CC[C@@H]2[C@H](N)C3)cc2nc(-c3cc4ccc5nc4n3CCCC[C@H]3C[C@@H]3C(=O)N[C@@H]5C)n(C)c12 [Example 152, (2~{R},5~{S},7~{S})-13-[5-[(1~{R},2~{R},4~{S})-2-amino-7-azabicyclo[2.2.1]heptane-7-carbonyl]-7-methoxy-1-methyl-benzimidazol-2-yl]-2-methyl-3,12,18-triazatetracyclo[10.5.2.0^{5,7}.0^{15,19}] nonadeca-1(18),13,15(19),16-tetraen-4-one] | 0.043 µM
18 | COc1cc(C(=O)N2CCC[C@@H](N)C2)cc2nc(-c3cc4ccc5nc4n3CCCCC[C@@H](OC)C(C)(C)C(=O)N[C@@H]5C)n(C)c12 [Example 153, (7~{R},11~{R})-17-[5-[(3~{R})-3-aminopiperidine-1-carbonyl]-7-methoxy-1-methyl-benzimidazol-2-yl]-7-methoxy-8,8,11-trimethyl-1,10,19-triazatricyclo[10.5.2.0^{15,18}]nonadeca-12(19),13,15(18),16-tetraen-9-one] | 0.116 µM
